pEC50, pIC50, pKd, pKi: −log10 of the molar value.
Tests used:
[1] = target: T1, Nuclear receptor ROR-alpha (Mus musculus) (UniProt P51448); conditions: CHO-K1
T1 sequence (whole entry): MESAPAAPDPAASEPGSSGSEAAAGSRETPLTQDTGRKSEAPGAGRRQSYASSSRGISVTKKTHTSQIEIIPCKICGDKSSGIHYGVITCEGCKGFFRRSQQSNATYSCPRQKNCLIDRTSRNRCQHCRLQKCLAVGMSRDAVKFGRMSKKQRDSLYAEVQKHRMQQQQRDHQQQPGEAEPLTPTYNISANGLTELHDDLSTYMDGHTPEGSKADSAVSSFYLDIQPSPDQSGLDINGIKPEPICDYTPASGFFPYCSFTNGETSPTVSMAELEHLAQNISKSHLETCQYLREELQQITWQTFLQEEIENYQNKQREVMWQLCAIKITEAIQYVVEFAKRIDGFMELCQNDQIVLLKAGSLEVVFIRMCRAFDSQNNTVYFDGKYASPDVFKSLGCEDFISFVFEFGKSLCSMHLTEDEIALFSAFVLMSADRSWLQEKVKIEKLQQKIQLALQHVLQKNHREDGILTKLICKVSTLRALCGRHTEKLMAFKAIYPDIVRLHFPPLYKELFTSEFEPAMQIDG
Description: Inverse agonist activity at mouse ROR alpha expressed in CHO-K1 cells after 24 hrs by luciferase reporter gene assay relative to vehicle control response

[2] = target: T2, Nuclear receptor ROR-gamma (Homo sapiens, UniProt P51449); experiment: Agonist activity at full length human ROR gamma expressed in human Jurkat cells assessed as IL17 promoter activation by luciferase reporter gene assay; assay type: functional, cell-based
T2 sequence (P51449 whole entry): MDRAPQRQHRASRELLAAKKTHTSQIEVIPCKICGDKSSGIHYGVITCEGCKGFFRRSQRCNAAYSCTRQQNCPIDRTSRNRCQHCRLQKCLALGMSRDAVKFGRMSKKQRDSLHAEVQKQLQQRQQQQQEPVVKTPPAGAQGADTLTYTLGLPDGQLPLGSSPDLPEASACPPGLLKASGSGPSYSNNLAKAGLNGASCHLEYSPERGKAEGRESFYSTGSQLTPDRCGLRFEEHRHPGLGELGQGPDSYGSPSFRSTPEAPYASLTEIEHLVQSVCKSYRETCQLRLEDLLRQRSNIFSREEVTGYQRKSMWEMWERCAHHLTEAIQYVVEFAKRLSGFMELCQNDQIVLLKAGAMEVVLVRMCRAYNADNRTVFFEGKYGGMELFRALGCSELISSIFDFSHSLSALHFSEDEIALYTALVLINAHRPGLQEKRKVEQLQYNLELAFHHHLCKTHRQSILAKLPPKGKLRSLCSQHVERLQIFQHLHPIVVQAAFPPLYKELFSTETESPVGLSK

[3] = target: T3, Nuclear receptor ROR-gamma (Homo sapiens) (UniProt P51449); experiment: Binding affinity to human ROR gamma ligand binding domain assessed as thermal stability shift by circular dichroism analysis
T3 sequence (whole entry): T2 sequence (P51449 whole entry)

[4] = target: T2, Nuclear receptor ROR-gamma; experiment: Displacement of 25-[3H]hydroxycholesterol from ROR gamma (unknown origin) by competitive binding assay
[5] = target: T2, Nuclear receptor ROR-gamma; experiment: Agonist activity at human His6-tagged ROR gamma ligand binding domain (residues 262 to 507) expressed in Escherichia coli BL21 (DE3) cells assessed as increase in recruitment of coactivator peptide by AlphaScreen biochemical assay; assay type: functional
[6] = target: T2, Nuclear receptor ROR-gamma; experiment: Displacement of 25-[3H]hydroxycholesterol from GST-tagged ROR gamma ligand binding domain (unknown origin) expressed in Escherichia coli BL21 gold (DE3) cells by radioligand competition assay
[7] = target: T4, Nuclear receptor ROR-beta (Homo sapiens) (UniProt Q92753); experiment: Inhibition of ROR beta (unknown origin)-mediated transactivation
T4 sequence (whole entry): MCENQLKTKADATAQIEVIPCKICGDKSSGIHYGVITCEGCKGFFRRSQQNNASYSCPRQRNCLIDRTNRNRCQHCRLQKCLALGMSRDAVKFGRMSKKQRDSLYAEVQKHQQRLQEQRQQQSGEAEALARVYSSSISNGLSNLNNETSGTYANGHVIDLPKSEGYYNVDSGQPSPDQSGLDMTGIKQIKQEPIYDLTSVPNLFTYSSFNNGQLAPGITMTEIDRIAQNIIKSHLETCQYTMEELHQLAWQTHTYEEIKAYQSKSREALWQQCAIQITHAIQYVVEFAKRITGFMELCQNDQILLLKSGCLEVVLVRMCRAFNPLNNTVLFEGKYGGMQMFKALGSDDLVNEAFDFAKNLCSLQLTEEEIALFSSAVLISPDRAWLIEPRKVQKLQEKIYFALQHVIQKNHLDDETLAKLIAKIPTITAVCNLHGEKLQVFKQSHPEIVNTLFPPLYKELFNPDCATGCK

[8] = target: T3, Nuclear receptor ROR-gamma (Homo sapiens); experiment: Agonist activity at ROR gamma in human CD4+ T cells assessed as IL-17 production at 3 uM by ELISA; assay type: cell-based; conditions: T-cell
[9] = target: T5, Oxysterols receptor LXR-alpha (Homo sapiens) (UniProt Q13133); experiment: Activation of GAL4-fused LXR alpha (unknown origin) expressed in HEK293T cells after 20 hrs relative to T0901317; assay type: cell-based; conditions: HEK-293T
T5 sequence (whole entry): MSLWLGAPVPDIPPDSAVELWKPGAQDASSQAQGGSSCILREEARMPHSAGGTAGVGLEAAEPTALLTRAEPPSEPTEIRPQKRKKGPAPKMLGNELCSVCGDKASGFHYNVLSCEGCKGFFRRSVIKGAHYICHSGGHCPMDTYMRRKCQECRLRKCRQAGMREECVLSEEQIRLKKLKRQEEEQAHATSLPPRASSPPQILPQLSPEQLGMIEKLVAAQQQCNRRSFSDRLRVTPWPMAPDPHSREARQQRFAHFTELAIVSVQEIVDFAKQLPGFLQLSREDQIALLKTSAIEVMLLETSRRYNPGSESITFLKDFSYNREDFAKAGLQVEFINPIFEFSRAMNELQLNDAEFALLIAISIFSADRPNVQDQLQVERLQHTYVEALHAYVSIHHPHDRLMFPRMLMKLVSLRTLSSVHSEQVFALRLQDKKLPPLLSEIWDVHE

[10] = target: T6, Estrogen-related receptor gamma (Homo sapiens, UniProt P62508); experiment: Binding affinity to human ERR gamma
T6 sequence (P62508 whole entry): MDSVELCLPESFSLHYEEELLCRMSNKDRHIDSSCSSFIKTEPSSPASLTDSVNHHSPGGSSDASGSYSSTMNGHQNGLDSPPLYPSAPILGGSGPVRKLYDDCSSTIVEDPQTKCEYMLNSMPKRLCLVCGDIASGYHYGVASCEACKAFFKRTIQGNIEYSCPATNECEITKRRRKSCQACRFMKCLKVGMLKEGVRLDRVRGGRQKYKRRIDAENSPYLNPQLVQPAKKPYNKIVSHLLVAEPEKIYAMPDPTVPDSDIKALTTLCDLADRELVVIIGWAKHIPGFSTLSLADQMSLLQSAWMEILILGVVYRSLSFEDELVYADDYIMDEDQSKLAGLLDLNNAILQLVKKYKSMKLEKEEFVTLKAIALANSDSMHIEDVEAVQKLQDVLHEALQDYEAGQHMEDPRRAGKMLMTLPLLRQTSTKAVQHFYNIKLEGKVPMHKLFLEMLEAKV

Compound: CCCOC/C(=N\c1ccc(Cl)cc1C(F)(F)F)n1ccnc1
- IC20 [1]: 10000 nM

Compound: Cc1cccc(C(=O)Nc2cc(-c3ccccc3)no2)c1
- pEC50 [2]: 7.00
- melting temperature shift (delta Tm) [3]: 3 °C

Compound: CCC(=O)Nc1ccc2nn(-c3ccc(CC)cc3)nc2c1
- pEC50 [2]: 7.00
- melting temperature shift (delta Tm) [3]: 3 °C

Compound: CCC(C)c1cc(C(C)(C)c2ccc(O)c(C(C)CC)c2)ccc1O (configuration not stated)
- pIC50 [4]: 6.82

Compound: CC(C)CC[C@H](O)[C@@H](C)[C@H]1CC[C@H]2[C@@H]3CC=C4C[C@@H](O)CC[C@]4(C)[C@H]3CC[C@]12C
- pEC50 [5]: 7.70

Compound: CC(C)CCC[C@@H](C)[C@H]1CC[C@H]2[C@@H]3[C@H](O)C=C4C[C@@H](O)CC[C@]4(C)[C@H]3CC[C@]12C
- pKi [6]: 8.00

Compound: CC(CO)CCC[C@@H](C)[C@H]1CC[C@H]2[C@@H]3CC=C4C[C@@H](O)CC[C@]4(C)[C@H]3CC[C@]12C (some centres not stated)
- pEC50 [5]: 7.70

Compound: O=S(=O)(c1ccccc1)N(CC(F)(F)F)c1ccc(C(O)(C(F)(F)F)C(F)(F)F)cc1
- IC20 [1]: 12000 nM

Compound: CC1=C(/C=C/C(C)=C/C=C/C(C)=C/C(=O)O)C(C)(C)CCC1
- Imax [7]: 70%

Compound: Cc1cc(C)c2nc(NC(=O)c3sccc3C)sc2c1
- pEC50 [2]: 7.00
- Activity [8]: 220%
- melting temperature shift (delta Tm) [3]: 3 °C

Compound: CC(=O)N1CCN(Cc2ccc(-c3ccc(C(O)(C(F)(F)F)C(F)(F)F)cc3)cc2)CC1
- Activity [9]: < 5%

Compound: CC(C)(c1ccc(O)cc1)c1ccc(O)cc1 [BISPHENOL A]
- pKd [10]: 8.26

Compound: CC(C)[C@@H](O)CC[C@@H](C)[C@H]1CC[C@H]2[C@@H]3CC=C4C[C@@H](O)CC[C@]4(C)[C@H]3CC[C@]12C
- pKi [6]: 8.00
